Reference: the supplement of paper PMC10307832

Legend:
Assay in all cases: relative viability (nuclei count vs DMSO), 5 days (fraction); higher = more cells survive
Bosutinib + Palbociclib = compound: COc1cc(Nc2c(C#N)cnc3cc(OCCCN4CCN(C)CC4)c(OC)cc23)c(Cl)cc1Cl [Bosutinib] + CC(=O)c1c(C)c2cnc(Nc3ccc(N4CCNCC4)cn3)nc2n(C2CCCC2)c1=O [Palbociclib] (partner 0.5 µM)
Summary of the method: (§1)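 Relative viability divides the nuclei count in treated wells by that in vehicle wells. Lung cancer cell lines were seeded in 1536-well plates, dosed by pin tool the next day, and fixed and stained after 5 days in one step with final 0.05% Triton X-100, 1% formaldehyde and 1 ug/ml Hoechst. Dosing was a single drug or a fixed anchor-drug dose plus five library-drug doses (not always all listed) in √10 steps, and values are medians of duplicate plates imaged at 4×.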

Bosutinib + Luminespib = compound: COc1cc(Nc2c(C#N)cnc3cc(OCCCN4CCN(C)CC4)c(OC)cc23)c(Cl)cc1Cl [Bosutinib] + CCNC(=O)c1noc(-c2cc(C(C)C)c(O)cc2O)c1-c1ccc(CN2CCOCC2)cc1 [Luminespib] (partner 0.01 µM)
Summary of the method: as §1

Bosutinib + Linsitinib = compound: COc1cc(Nc2c(C#N)cnc3cc(OCCCN4CCN(C)CC4)c(OC)cc23)c(Cl)cc1Cl [Bosutinib] + C[C@]1(O)C[C@@H](c2nc(-c3ccc4ccc(-c5ccccc5)nc4c3)c3c(N)nccn32)C1 [Linsitinib] (partner 1 µM)
Summary of the method: as §1

Bosutinib + AZD7762 = compound: COc1cc(Nc2c(C#N)cnc3cc(OCCCN4CCN(C)CC4)c(OC)cc23)c(Cl)cc1Cl [Bosutinib] + NC(=O)Nc1cc(-c2cccc(F)c2)sc1C(=O)N[C@H]1CCCNC1 [AZD7762] (partner 0.2 µM)
Summary of the method: as §1

Bosutinib + Olaparib = compound: COc1cc(Nc2c(C#N)cnc3cc(OCCCN4CCN(C)CC4)c(OC)cc23)c(Cl)cc1Cl [Bosutinib] + O=C(c1cc(Cc2n[nH]c(=O)c3ccccc23)ccc1F)N1CCN(C(=O)C2CC2)CC1 [Olaparib] (partner 8 µM)
Summary of the method: as §1

Cell Line | relative viability (Bosutinib + Palbociclib; first compound 0.01 µM) | relative viability (Bosutinib + Palbociclib; first compound 0.03162 µM) | relative viability (Bosutinib + Palbociclib; first compound 0.1 µM) | relative viability (Bosutinib + Palbociclib; first compound 1 µM) | relative viability (Bosutinib + Luminespib; first compound 0.01 µM) | relative viability (Bosutinib + Luminespib; first compound 0.03162 µM) | relative viability (Bosutinib + Luminespib; first compound 0.1 µM) | relative viability (Bosutinib + Luminespib; first compound 1 µM) | relative viability (Bosutinib + Linsitinib; first compound 0.01 µM) | relative viability (Bosutinib + Linsitinib; first compound 0.03162 µM) | relative viability (Bosutinib + Linsitinib; first compound 0.1 µM) | relative viability (Bosutinib + Linsitinib; first compound 1 µM) | relative viability (Bosutinib + AZD7762; first compound 0.01 µM) | relative viability (Bosutinib + AZD7762; first compound 0.03162 µM) | relative viability (Bosutinib + AZD7762; first compound 0.1 µM) | relative viability (Bosutinib + AZD7762; first compound 1 µM) | relative viability (Bosutinib + Olaparib; first compound 0.01 µM) | relative viability (Bosutinib + Olaparib; first compound 0.03162 µM) | relative viability (Bosutinib + Olaparib; first compound 0.1 µM) | relative viability (Bosutinib + Olaparib; first compound 1 µM)
NCI-H1355 | 0.415 | 0.396 | 0.386 | 0.372 | 0.752 | 0.691 | 0.761 | 0.566 | 0.824 | 0.792 | 0.872 | 0.687 | 0.801 | 0.707 | 0.707 | 0.534 | 0.715 | 0.733 | 0.784 | 0.633
NCI-H1395 | 0.595 | 0.539 | 0.643 | 0.48 | 0.677 | 0.635 | 0.761 | 0.615 | 1.28 | 1.17 | 1.27 | 0.994 | 0.405 | 0.425 | 0.387 | 0.38 | 0.456 | 0.511 | 0.468 | 0.487
NCI-H1437 | 0.332 | 0.281 | 0.317 | 0.343 | 1.02 | 1.11 | 1.1 | 1.03 | 1.06 | 1.05 | 0.962 | 0.781 | 1.08 | 1.07 | 1.13 | 0.922 | 0.609 | 0.635 | 0.604 | 0.545
NCI-H1651 | 0.506 | 0.535 | 0.507 | 0.534 | 0.738 | 0.942 | 0.812 | 0.902 | 0.911 | 1.02 | 0.939 | 0.724 | 0.473 | 0.515 | 0.443 | 0.441 | 0.184 | 0.189 | 0.184 | 0.201
NCI-H1666 | 0.663 | 0.664 | 0.634 | 0.674 | 1.02 | 1.01 | 0.995 | 1.1 | 0.774 | 0.774 | 0.794 | 0.662 | 0.719 | 0.836 | 0.832 | 0.788 | 0.713 | 0.701 | 0.756 | 0.794
NCI-H1734 | 0.334 | 0.367 | 0.365 | 0.299 | 0.172 | 0.181 | 0.217 | 0.196 | 0.88 | 0.945 | 0.914 | 0.706 | 0.632 | 0.512 | 0.512 | 0.369 | 0.629 | 0.62 | 0.584 | 0.488
NCI-H1755 | 0.435 | 0.456 | 0.433 | 0.469 | 0.465 | 0.454 | 0.45 | 0.351 | 0.952 | 1.03 | 1.02 | 0.954 | 0.412 | 0.462 | 0.446 | 0.418 | 0.874 | 0.998 | 0.861 | 0.885
NCI-H1792 | 0.686 | 0.588 | 0.724 | 0.728 | 0.528 | 0.35 | 0.411 | 0.367 | 0.638 | 0.525 | 0.586 | 0.449 | 0.641 | 0.543 | 0.778 | 0.273 | 0.525 | 0.312 | 0.548 | 0.273
NCI-H1793 | 0.272 | 0.311 | 0.326 | 0.266 | 0.213 | 0.205 | 0.163 | 0.179 | 0.875 | 0.742 | 0.904 | 0.551 | 0.497 | 0.39 | 0.366 | 0.175 | 0.815 | 0.804 | 0.755 | 0.539
NCI-H1915 | 0.521 | 0.513 | 0.544 | 0.56 | 0.768 | 0.816 | 0.815 | 0.64 | 1.04 | 1.1 | 1.08 | 1.14 | 0.718 | 0.647 | 0.654 | 0.572 | 0.259 | 0.256 | 0.258 | 0.26
NCI-H1944 | 0.363 | 0.362 | 0.373 | 0.298 | 0.839 | 0.713 | 0.777 | 0.469 | 1.18 | 1.25 | 1.14 | 0.809 | 0.558 | 0.533 | 0.476 | 0.394 | 0.411 | 0.384 | 0.417 | 0.433
NCI-H1975 | 0.572 | 0.638 | 0.625 | 0.516 | 0.244 | 0.252 | 0.21 | 0.141 | 0.932 | 0.833 | 0.952 | 0.722 | 0.742 | 0.711 | 0.642 | 0.559 | 0.71 | 0.784 | 0.794 | 0.56
NCI-H1993 | 0.67 | 0.783 | 0.718 | 0.619 | 0.688 | 0.817 | 0.875 | 0.887 | 0.749 | 0.759 | 0.645 | 0.762 | 0.759 | 0.778 | 0.847 | 0.672 | 0.988 | 0.996 | 1.04 | 1.01
NCI-H2085 | 0.465 | 0.442 | 0.469 | 0.517 | 0.393 | 0.466 | 0.492 | 0.44 | 0.778 | 0.865 | 0.835 | 1 | 1.1 | 0.903 | 0.939 | 0.65 | 0.717 | 0.72 | 0.709 | 0.89
NCI-H2087 | 0.247 | 0.263 | 0.218 | 0.276 | 0.194 | 0.154 | 0.146 | 0.151 | 0.871 | 1.08 | 0.779 | 0.94 | 1.54 | 1.13 | 1.31 | 1.24 | 0.663 | 0.599 | 0.749 | 0.649
NCI-H2126 | 0.324 | 0.322 | 0.351 | 0.359 | 0.848 | 0.828 | 0.874 | 0.725 | 0.645 | 0.717 | 0.687 | 0.628 | 0.982 | 1.04 | 1.03 | 1.04 | 0.892 | 0.885 | 0.916 | 0.936
